ChEMBL document CHEMBL4665541, “Search for new therapeutic options for the uncommon pathogen Mycobacterium chimaera: an open drug discovery approach” (Lancet Microbe, 2021)

What was measured:
Assay type in all cases: functional, organism-based
Parameters in all cases: conc 20 uM
[1] = test system: Mycobacterium intracellulare subsp. chimaera; assay: (§1) Inhibition of mycobacterial growth using the resazurin microtitre cell viability assay (REMA), compounds at final concentration of 20 µM (2% v/v DMSO). Hits were classed as compounds that inhibited bacterial growth by 70% or more compared to drug-free controls.; conditions: NCTC13781
[2] = test system: Mycobacterium tuberculosis; assay: as §1; conditions: H37Rv
[3] = test system: Mycobacteroides abscessus; assay: as §1; conditions: ATCC19977

| Substance | Survival [1] [%] | Survival [2] [%] | Survival [3] [%] |
| --- | --- | --- | --- |
| MMV676204 | 101 | 99.7 | 107 |
| MMV019993 | 98.9 | 97 | 95.9 |
| MMV019087 | 92.7 | 74.9 | 111 |
| MMV688550 | 99 | 95.8 | 105 |
| MMV688270 | 98.1 | 83 | 101 |
| MMV023860 | 90.3 | 84.6 | 117 |
| MMV676057 | 110 | 109 | 109 |
| MMV676881 | 101 | 98.9 | 99.4 |
| MMV024101 | 100 | 99.6 | 95.8 |
| MMV007803 | 105 | 97.5 | 101 |
| MMV011765 | 70.9 | 89.2 | 108 |
| MMV689255 | 109 | 89.2 | 124 |
| MMV688703 | 103 | 102 | 108 |
| MMV688798 | 95.2 | 102 | 103 |
| MMV676449 | 84.8 | 90.2 | 102 |
| MMV688327 | -1.9 | 7.39 | 18.6 |
| MMV637953 | 117 | 102 | 145 |
| MMV688943 | 100 | 89.7 | 112 |
| MMV1088520 | 98.2 | 102 | 110 |
| MMV010764 | 94.1 | 88.8 | 101 |
| MMV1198433 | 112 | 105 | 98.6 |
| MMV676161 | 103 | 80.2 | 114 |

| Substance | Survival [1] [%] | Survival [2] [%] | Survival [3] [%] |
| --- | --- | --- | --- |
| MMV688889 | 89.4 | 58.9 | 105 |
| MMV000016 | 110 | 127 | 99.9 |
| MMV002816 | 102 | 86.4 | 112 |
| MMV688555 | 92.5 | 46.8 | 108 |
| MMV001493 | 106 | 93.6 | 128 |
| MMV026490 | 104 | 88.9 | 115 |
| MMV688262 | 113 | 8.6 | 106 |
| MMV659004 | 100 | 6.84 | 112 |
| MMV023227 | 87.2 | 85.3 | 106 |
| MMV687189 | 98.5 | 58.1 | 104 |
| MMV000907 | 98.3 | 97.1 | 111 |
| MMV020321 | 91.7 | 90.7 | 115 |
| MMV676478 | 96.5 | 44.5 | 111 |
| MMV688554 | 102 | 76 | 115 |
| MMV676536 | 101 | 90.9 | 119 |
| MMV676603 | 101 | 38.4 | 112 |
| MMV024829 | 103 | 88.9 | 119 |
| MMV000023 | 92.8 | 84.7 | 109 |
| MMV016838 | 91.7 | 78.9 | 109 |
| MMV407539 | 98.9 | 85.3 | 103 |
| MMV002529 | 99.8 | 92 | 120 |
| MMV202553 | 100 | 83.4 | 109 |

| Substance | Survival [1] [%] | Survival [2] [%] | Survival [3] [%] |
| --- | --- | --- | --- |
| MMV676395 | -0.21 | 2.49 | 111 |
| MMV024035 | 98.3 | 85.9 | 117 |
| MMV689437 | 106 | 104 | 99 |
| MMV676406 | 105 | 67.8 | 111 |
| MMV676588 | 76.5 | 19.7 | 102 |
| MMV688755 | 107 | 7.68 | 111 |
| MMV022236 | 109 | 109 | 119 |
| MMV687246 | 110 | 90.9 | 119 |
| MMV671636 | 85.9 | 95.9 | 112 |
| MMV676382 | 99 | 88.4 | 122 |
| MMV676269 | 104 | 88.8 | 111 |
| MMV006372 | 98.4 | 101 | 111 |
| MMV676602 | 111 | 105 | 95.5 |
| MMV026468 | 96.1 | 95.9 | 105 |
| MMV676584 | 90.2 | 66.8 | 115 |
| MMV032995 | 98.4 | 89.1 | 111 |
| MMV023969 | 92.8 | 19.5 | 96 |
| MMV687794 | 99.9 | 90.9 | 109 |
| MMV676064 | 102 | 96.8 | 117 |
| MMV021057 | 110 | 96.6 | 126 |
| MMV054312 | 76.8 | 46.8 | 111 |
| MMV020670 | 93 | 99.7 | 110 |

| Substance | Survival [1] [%] | Survival [2] [%] | Survival [3] [%] |
| --- | --- | --- | --- |
| MMV019742 | 97.5 | 96 | 103 |
| MMV690028 | 92.3 | 95.8 | 120 |
| MMV1019989 | 107 | 105 | 99 |
| MMV030734 | 89.4 | 82.6 | 111 |
| MMV663250 | 116 | 95.4 | 104 |
| MMV006741 | 96.4 | 85.7 | 111 |
| MMV1037162 | 107 | 107 | 97.5 |
| MMV007920 | 99.7 | 98 | 102 |
| MMV689000 | 101 | 89.8 | 115 |
| MMV676048 | 94.4 | 90.5 | 114 |
| MMV688754 | 103 | 92.9 | 109 |
| MMV024195 | 94.1 | 74.2 | 103 |
| MMV200748 | 100 | 103 | 108 |
| MMV688470 | 95.7 | 94.8 | 106 |
| MMV687145 | 130 | 42.6 | 108 |
| MMV688467 | 111 | 95.5 | 118 |
| MMV676444 | 97.5 | 56.3 | 113 |
| MMV1236379 | 98.4 | 96 | 110 |
| MMV010576 | 99 | 106 | 112 |
| MMV675998 | 94.7 | 89.7 | 117 |
| MMV020320 | 98.9 | 42.2 | 113 |
| MMV676605 | 110 | 99.5 | 122 |

| Substance | Survival [1] [%] | Survival [2] [%] | Survival [3] [%] |
| --- | --- | --- | --- |
| MMV676380 | 86.9 | 97 | 102 |
| MMV689758 | 1.81 | 5.64 | 19.8 |
| MMV688763 | 99.1 | 21.8 | 122 |
| MMV688991 | 90.1 | 82.1 | 98.3 |
| MMV687703 | 3.71 | 4.55 | 105 |
| MMV560185 | 89.9 | 80.8 | 116 |
| MMV022029 | 99.1 | 90.8 | 118 |
| MMV687813 | 34.4 | 5.59 | 102 |
| MMV202458 | 98.1 | 132 | 99.9 |
| MMV026356 | 89.7 | 101 | 107 |
| MMV000011 | 10.1 | 22.4 | 118 |
| MMV085071 | 86.4 | 93.5 | 110 |
| MMV676472 | 92.2 | 120 | 115 |
| MMV687172 | 101 | 129 | 98.3 |
| MMV228911 | 89.5 | 114 | 97.2 |
| MMV661713 | 47.5 | 25.2 | 112 |
| MMV004168 | 99.7 | 90.2 | 114 |
| MMV688936 | 98.9 | 82.6 | 106 |
| MMV676589 | 89 | 70.1 | 116 |
| MMV675993 | 109 | 92.9 | 102 |
| MMV272144 | 105 | 85.8 | 110 |
